Measured values: PMC3433420 (PLoS ONE, 2012)
Residues, ends and D or L forms follow the SMILES beside them.

Key:
GRAP2 SH2 domain = biological target: T1, GRAP2 SH2 domain (Homo sapiens, UniProt O75791); test: FP saturation binding assay
T1 sequence (O75791 58-149 limits assumed): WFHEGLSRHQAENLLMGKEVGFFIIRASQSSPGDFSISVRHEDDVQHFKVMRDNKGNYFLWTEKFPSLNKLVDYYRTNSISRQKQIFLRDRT

[1] = biological target: T2, PLCG1-NC tandem SH2 domains (Homo sapiens, UniProt P19174); test: FP saturation binding assay; conditions: Protein PLCG1-NC; FP saturation binding, high-confidence ErbB interactions; mean over replicate hits
T2 construct: the tandem protein was included in our analysis with all internal amino acids linking the domains; 6X His; thioredoxin; made in house; host or cells: E. coli BL21(DE3)pLysS
T2 sequence (P19174 550-756 limits assumed): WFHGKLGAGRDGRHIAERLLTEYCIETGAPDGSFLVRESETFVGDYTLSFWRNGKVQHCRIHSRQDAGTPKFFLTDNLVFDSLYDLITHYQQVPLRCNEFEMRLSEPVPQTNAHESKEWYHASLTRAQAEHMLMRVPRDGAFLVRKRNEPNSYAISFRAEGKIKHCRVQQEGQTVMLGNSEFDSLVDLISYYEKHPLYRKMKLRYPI

HSH2D SH2 domain = biological target: T3, HSH2D SH2 domain (Homo sapiens, UniProt Q96JZ2); test: FP saturation binding assay
T3 sequence (Q96JZ2 34-125 limits assumed): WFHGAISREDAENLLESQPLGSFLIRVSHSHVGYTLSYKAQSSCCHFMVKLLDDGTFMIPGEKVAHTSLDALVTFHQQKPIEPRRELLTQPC

SH2D1A SH2 domain = biological target: T4, SH2D1A SH2 domain (Homo sapiens, UniProt O60880); test: FP saturation binding assay
T4 sequence (O60880 6-104 limits assumed): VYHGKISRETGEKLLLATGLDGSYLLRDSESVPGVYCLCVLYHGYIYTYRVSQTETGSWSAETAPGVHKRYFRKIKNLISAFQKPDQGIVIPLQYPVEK

PTK6 SH2 domain = biological target: T5, PTK6 SH2 domain (Homo sapiens, UniProt Q13882); test: FP saturation binding assay; conditions: protein PTK6; FP, high-confidence ErbB interactions; mean of replicate hits
T5 construct: from the PTK6 SH2 domain; 6X His; thioredoxin; made in house; host or cells: E. coli BL21(DE3)pLysS
T5 sequence (Q13882 78-170 limits assumed): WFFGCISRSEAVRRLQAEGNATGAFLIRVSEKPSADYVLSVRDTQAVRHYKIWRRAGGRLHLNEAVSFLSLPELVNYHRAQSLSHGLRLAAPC
Method in brief: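 KD values come from least-squares fits of fluorescence polarization (ex 530, em 555 nm), corrected for thioredoxin nonspecific binding and plate baseline, with outliers pruned. Fixed 10 nM labeled peptide met a 0.002–10 µM protein series for 20 min at room temperature in HEPES/KCl/Tween/DTT buffer, pH 7.8.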

SH2 and PTB domains [2] = biological target: T6, SH2 and PTB domains (Homo sapiens, UniProt P78314); test: In-house protein microarrays (with or without 5 mM DTT), protein named per line; format: binding; conditions: protein SH3BP2, array fabrication # 39336
T6 construct: thioredoxin; made in house; host or cells: BL21(DE3)pLysS E. coli
T6 sequence (P78314 1-561): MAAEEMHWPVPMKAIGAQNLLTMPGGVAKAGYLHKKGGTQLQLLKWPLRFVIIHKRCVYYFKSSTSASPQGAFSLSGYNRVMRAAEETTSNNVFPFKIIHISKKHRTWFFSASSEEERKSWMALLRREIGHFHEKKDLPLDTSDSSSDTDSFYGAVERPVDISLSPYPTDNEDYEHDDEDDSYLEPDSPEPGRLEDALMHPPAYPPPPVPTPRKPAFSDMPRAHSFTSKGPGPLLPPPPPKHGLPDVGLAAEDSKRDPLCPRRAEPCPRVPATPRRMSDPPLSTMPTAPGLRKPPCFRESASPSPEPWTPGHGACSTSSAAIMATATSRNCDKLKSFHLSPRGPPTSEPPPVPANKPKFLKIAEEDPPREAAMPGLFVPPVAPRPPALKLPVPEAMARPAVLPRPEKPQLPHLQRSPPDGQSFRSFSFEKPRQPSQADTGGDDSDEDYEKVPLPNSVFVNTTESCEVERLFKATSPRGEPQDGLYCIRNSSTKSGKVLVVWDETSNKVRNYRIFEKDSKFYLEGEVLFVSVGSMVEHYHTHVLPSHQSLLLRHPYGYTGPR
Experimental: (§1) 300 pL of purified recombinant proteins and a thioredoxin tag control were spotted at a concentration of ∼40 µM in duplicate onto aldehyde-coated microscope slides (Erie Scientific Company, Portsmouth, NH) using a Nano-Plotter (NP) 2.1/E noncontact microarrayer (GeSiM, Munich, Germany). 16 identical microarrays per slide were printed in a 2×8 (column by row) format with distances of 9 mm between individual arrays; each array consisted of a 14×14 configuration of spots 400 µm apart. Following printing at a constant humidity level of 50%, slides were desiccated overnight and stored at −80°C. For peptide probing, array slides were transferred to 96-well microplates (TeleChem International, Inc., Sunnyvale, CA) and sandwiched with silicone gaskets. Prior to peptide addition, aldehyde sites were quenched with buffer B (20 mM HEPES, 100 mM KCl, 0.1% Tween-20, 5 mM DTT, pH 7.8) containing 1% bovine serum albumin (BSA) (w/v) for one hour at room temperature; moderate agitation was applied in a plate shaker (IKA, Germany) to displace glycerol from the surface area of protein sample spots. […] The arrays were subsequently washed once with 300 µL of buffer B and once with 300 µL of ddH2O. Residual water was removed by centrifugation; slides were stored under desiccation in the dark until analysis.
(§2) Microarray slides were scanned at a resolution of 10 µm using a GenePix 4000B microarray scanner and analyzed using GenePix Pro v6.0 software (Molecular Devices, Sunnyvale, CA). To independently visualize protein spots irrespective of peptide binding, samples were printed simultaneously with 400 nM of Cyanine-5 (Cy5) labeled bovine serum albumin (BSA). […] Following spot layout identification via Cy5 labeled BSA, the mean fluorescence intensity of rhodamine for duplicate protein spots was quantified and normalized by subtracting the corresponding mean fluorescence intensity of thioredoxin. Normalized fluorescence values were then imported into MATLAB and KDs determined as previously described.

SH2 and PTB domains [3] = biological target: T7, SH2 and PTB domains (Homo sapiens, UniProt P42684); test: as above; format: binding; conditions: protein ABL2, array fabrication # 39336
T7 construct: thioredoxin; made in house; host or cells: BL21(DE3)pLysS E. coli
T7 sequence (P42684 whole entry, the tested form may be a part): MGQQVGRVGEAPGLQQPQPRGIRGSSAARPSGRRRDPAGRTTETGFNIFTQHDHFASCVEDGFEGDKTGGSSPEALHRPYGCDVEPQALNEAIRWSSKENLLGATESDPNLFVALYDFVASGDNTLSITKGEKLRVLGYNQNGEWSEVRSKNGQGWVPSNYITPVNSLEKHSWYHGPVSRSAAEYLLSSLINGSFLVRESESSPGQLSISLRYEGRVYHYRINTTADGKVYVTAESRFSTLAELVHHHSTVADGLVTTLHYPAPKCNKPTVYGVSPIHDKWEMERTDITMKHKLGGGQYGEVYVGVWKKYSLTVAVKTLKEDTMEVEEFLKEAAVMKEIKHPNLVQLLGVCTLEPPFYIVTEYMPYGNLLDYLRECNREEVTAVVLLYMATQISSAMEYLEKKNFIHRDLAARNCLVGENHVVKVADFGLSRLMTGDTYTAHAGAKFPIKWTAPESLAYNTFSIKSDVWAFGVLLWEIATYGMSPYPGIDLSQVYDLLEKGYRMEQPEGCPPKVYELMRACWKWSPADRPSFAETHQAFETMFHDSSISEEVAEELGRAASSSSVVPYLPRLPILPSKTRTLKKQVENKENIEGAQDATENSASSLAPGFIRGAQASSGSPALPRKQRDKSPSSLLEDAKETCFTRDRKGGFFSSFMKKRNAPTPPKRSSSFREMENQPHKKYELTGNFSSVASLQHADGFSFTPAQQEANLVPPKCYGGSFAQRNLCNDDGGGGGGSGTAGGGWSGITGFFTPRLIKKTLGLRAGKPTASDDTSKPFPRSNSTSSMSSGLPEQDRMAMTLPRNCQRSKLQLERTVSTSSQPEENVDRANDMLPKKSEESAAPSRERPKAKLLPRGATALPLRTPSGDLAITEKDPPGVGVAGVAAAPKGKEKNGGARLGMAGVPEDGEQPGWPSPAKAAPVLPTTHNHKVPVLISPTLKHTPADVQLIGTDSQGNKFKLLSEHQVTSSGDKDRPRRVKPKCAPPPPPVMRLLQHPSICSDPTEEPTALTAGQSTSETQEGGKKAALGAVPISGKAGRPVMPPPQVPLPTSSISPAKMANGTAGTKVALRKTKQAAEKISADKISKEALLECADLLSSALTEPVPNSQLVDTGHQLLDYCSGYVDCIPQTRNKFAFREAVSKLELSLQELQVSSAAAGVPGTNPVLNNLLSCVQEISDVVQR
Experimental: as §1, §2

SH2 and PTB domains [4] = biological target: T8, SH2 and PTB domains (Homo sapiens, UniProt P51451); test: as above; format: binding; conditions: protein BLK, array fabrication # 39336
T8 construct: thioredoxin; made in house; host or cells: BL21(DE3)pLysS E. coli
T8 sequence (P51451 whole entry, the tested form may be a part): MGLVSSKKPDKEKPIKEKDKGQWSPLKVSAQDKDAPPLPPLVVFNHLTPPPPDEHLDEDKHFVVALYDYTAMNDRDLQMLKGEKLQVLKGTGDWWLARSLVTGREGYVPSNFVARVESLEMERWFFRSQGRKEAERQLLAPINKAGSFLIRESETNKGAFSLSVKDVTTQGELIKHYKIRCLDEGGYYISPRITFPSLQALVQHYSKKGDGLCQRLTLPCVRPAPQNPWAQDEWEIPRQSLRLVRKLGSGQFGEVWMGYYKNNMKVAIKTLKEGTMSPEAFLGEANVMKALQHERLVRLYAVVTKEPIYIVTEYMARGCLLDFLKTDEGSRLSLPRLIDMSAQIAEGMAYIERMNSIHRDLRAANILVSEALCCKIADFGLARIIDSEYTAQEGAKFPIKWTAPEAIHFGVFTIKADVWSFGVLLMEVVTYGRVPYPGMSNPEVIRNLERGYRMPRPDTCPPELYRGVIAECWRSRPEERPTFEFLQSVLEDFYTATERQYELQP
Experimental: as §1, §2

SH2 and PTB domains [5] = biological target: T9, SH2 and PTB domains (Homo sapiens, UniProt P43405); test: as above; format: binding; conditions: protein SYK-NC, array fabrication # 39336
T9 construct: thioredoxin; made in house; host or cells: BL21(DE3)pLysS E. coli
Experimental: as §1, §2

SH2 and PTB domains [6] = biological target: T10, SH2 and PTB domains (Homo sapiens, UniProt P16885); test: as above; format: binding; conditions: protein PLCG2-NC, array fabrication # 39336
T10 construct: thioredoxin; made in house; host or cells: BL21(DE3)pLysS E. coli
T10 sequence (P16885 1-1265): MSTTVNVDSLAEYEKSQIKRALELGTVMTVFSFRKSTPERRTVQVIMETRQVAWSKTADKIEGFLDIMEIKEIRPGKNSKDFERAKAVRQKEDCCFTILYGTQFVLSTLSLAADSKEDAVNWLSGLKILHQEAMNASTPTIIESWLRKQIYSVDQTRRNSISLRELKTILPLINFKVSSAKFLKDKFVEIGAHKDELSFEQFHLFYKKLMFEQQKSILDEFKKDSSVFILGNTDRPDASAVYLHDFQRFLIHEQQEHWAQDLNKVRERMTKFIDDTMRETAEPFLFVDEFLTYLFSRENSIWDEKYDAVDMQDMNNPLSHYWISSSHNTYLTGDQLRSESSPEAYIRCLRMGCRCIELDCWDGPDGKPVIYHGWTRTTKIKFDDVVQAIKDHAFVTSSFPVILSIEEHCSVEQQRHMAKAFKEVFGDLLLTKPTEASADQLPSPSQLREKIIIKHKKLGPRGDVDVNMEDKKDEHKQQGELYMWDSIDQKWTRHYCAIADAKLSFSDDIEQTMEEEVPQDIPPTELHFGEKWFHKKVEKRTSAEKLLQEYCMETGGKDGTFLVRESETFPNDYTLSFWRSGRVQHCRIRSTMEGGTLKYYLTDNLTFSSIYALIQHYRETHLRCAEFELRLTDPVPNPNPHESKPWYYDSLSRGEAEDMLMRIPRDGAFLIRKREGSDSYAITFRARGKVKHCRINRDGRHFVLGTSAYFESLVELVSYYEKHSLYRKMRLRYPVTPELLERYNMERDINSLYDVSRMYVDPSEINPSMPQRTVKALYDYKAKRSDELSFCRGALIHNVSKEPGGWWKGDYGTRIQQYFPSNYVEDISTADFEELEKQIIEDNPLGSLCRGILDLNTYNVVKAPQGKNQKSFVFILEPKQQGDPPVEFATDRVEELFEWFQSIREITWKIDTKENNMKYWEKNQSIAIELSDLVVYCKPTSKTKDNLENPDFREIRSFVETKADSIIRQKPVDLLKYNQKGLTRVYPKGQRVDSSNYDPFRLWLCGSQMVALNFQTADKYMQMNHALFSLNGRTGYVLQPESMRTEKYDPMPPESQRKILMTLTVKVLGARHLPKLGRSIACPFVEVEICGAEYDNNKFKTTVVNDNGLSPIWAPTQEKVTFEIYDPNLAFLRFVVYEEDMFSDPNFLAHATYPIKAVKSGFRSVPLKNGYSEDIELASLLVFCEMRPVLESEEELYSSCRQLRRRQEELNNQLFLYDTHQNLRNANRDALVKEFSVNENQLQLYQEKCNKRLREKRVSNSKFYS
Experimental: as §1, §2

SH2 and PTB domains [7] = biological target: T11, SH2 and PTB domains (Homo sapiens, UniProt P07947); test: as above; format: binding; conditions: protein YES1, array fabrication # 39336
T11 construct: thioredoxin; made in house; host or cells: BL21(DE3)pLysS E. coli
T11 sequence (P07947 whole entry, the tested form may be a part): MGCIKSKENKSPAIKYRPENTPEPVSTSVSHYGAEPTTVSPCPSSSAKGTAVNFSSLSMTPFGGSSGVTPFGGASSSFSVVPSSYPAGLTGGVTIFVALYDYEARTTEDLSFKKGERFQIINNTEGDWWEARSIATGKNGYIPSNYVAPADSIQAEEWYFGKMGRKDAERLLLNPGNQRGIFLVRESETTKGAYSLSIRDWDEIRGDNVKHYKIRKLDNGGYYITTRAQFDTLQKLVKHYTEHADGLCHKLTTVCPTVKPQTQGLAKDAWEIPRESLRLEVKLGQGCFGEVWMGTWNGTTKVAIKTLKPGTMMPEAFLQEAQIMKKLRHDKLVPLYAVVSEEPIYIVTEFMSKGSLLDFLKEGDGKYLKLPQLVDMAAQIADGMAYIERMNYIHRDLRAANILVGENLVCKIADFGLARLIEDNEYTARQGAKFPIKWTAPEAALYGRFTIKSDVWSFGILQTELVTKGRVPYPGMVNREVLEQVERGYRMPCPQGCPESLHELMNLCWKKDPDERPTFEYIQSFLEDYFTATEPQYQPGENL
Experimental: as §1, §2

| SMILES | Kd (GRAP2 SH2 domain) [µM] | Kd [1] [µM] | Kd (HSH2D SH2 domain) [µM] | Kd (SH2D1A SH2 domain) [µM] | Kd (PTK6 SH2 domain) [µM] | Kd (SH2 and PTB domains [2]; PM assay replicate # 39341) [µM] | Kd (SH2 and PTB domains [2]; PM assay replicate # 39342) [µM] | Kd (SH2 and PTB domains [3]; PM assay replicate # 39341) [µM] | Kd (SH2 and PTB domains [3]; PM assay replicate # 39342) [µM] | Kd (SH2 and PTB domains [4]; PM assay replicate # 39341) [µM] | Kd (SH2 and PTB domains [4]; PM assay replicate # 39342) [µM] | Kd (SH2 and PTB domains [5]; PM assay replicate # 39341) [µM] | Kd (SH2 and PTB domains [5]; PM assay replicate # 39342) [µM] | Kd (SH2 and PTB domains [6]; PM assay replicate # 39341) [µM] | Kd (SH2 and PTB domains [6]; PM assay replicate # 39342) [µM] | Kd (SH2 and PTB domains [7]; PM assay replicate # 39341) [µM] | Kd (SH2 and PTB domains [7]; PM assay replicate # 39342) [µM] |
| --- | --- | --- | --- | --- | --- | --- | --- | --- | --- | --- | --- | --- | --- | --- | --- | --- | --- |
| CC(C)C[C@H](NC(=O)[C@H](Cc1ccc(OP(=O)(O)O)cc1)NC(=O)[C@H](CCC(=O)O)NC(=O)[C@@H]1CCCN1C(=O)[C@H](CC(N)=O)NC(=O)CN)C(=O)N[C@@H](CC(N)=O)C(=O)N[C@H](C(=O)N[C@H](C(=O)N[C@@H](CCC(N)=O)C(=O)N1CCC[C@H]1C(=O)N[C@H](C(=O)N[C@@H](CC(=O)O)C(=O)O)[C@@H](C)O)C(C)C)[C@@H](C)O [ErbB1 1138 13-mer] (HELM PEPTIDE1{G.N.P.E.[O=C([C@H](Cc1ccc(OP(=O)(O)O)cc1)N[*:1])[*:2]].L.N.T.V.Q.P.T.D}$$$$V2.0) | 4.82 | 5.35 | 3.41 | 9.44 | – | – | – | – | – | – | – | – | – | – | – | – | – |
| C[C@H](NC(=O)[C@H](CC(N)=O)NC(=O)[C@H](Cc1c[nH]cn1)NC(=O)[C@H](Cc1ccc(OP(=O)(O)O)cc1)NC(=O)[C@H](CCC(=O)O)NC(=O)[C@@H]1CCCN1C(=O)[C@H](CC(N)=O)NC(=O)[C@@H](N)CC(=O)O)C(=O)N[C@@H](CO)C(=O)N[C@@H](CC(N)=O)C(=O)NCC(=O)N1CCC[C@H]1C(=O)N[C@@H](CC(=O)O)C(=O)O [ErbB4 1188 13-mer] (HELM PEPTIDE1{D.N.P.E.[O=C([C@H](Cc1ccc(OP(=O)(O)O)cc1)N[*:1])[*:2]].H.N.A.S.N.G.P.D}$$$$V2.0) | – | – | 3.05 | – | 9.42 | – | – | – | – | – | – | – | – | – | – | – | – |
| CC(C)C[C@H](NC(=O)[C@@H](NC(=O)[C@@H](NC(=O)CNC(=O)[C@@H]1CCCN1)[C@@H](C)O)C(C)C)C(=O)N1CCC[C@H]1C(=O)N1CCC[C@H]1C(=O)N1CCC[C@H]1C(=O)N1CCC[C@H]1C(=O)N[C@@H](Cc1ccc(OP(=O)(O)O)cc1)C(=O)N[C@@H](CCCNC(=N)N)C(=O)N[C@@H](Cc1c[nH]cn1)C(=O)N[C@@H](CCCNC(=N)N)C(=O)N[C@@H](CC(N)=O)C(=O)N[C@H](C(=O)N[C@H](C(=O)N[C@H](C(=O)N[C@@H](CC(=O)O)C(=O)O)C(C)C)C(C)C)[C@@H](C)O [ErbB4 pY1301 (18-mer)] (HELM PEPTIDE1{P.G.T.V.L.P.P.P.P.[O=C([C@H](Cc1ccc(OP(=O)(O)O)cc1)N[*:1])[*:2]].R.H.R.N.T.V.V.D}$$$$V2.0) | – | – | – | – | – | 1.18 | 1.61 | 1.03 | 0.00068 | 1.18 | 1.60 | 0.80 | 1.17 | 0.81 | 8.37 | 1.37 | 4.86 |
